Biological target: T1, Dopamine beta hydroxylase (Homo sapiens, UniProt P09172)
T1 construct: 125 μl of plasma; tissue Instituto Português do Sangue Transplantação; host or cells: human plasma from healthy donors
T1 sequence (P09172 40-617 limits assumed): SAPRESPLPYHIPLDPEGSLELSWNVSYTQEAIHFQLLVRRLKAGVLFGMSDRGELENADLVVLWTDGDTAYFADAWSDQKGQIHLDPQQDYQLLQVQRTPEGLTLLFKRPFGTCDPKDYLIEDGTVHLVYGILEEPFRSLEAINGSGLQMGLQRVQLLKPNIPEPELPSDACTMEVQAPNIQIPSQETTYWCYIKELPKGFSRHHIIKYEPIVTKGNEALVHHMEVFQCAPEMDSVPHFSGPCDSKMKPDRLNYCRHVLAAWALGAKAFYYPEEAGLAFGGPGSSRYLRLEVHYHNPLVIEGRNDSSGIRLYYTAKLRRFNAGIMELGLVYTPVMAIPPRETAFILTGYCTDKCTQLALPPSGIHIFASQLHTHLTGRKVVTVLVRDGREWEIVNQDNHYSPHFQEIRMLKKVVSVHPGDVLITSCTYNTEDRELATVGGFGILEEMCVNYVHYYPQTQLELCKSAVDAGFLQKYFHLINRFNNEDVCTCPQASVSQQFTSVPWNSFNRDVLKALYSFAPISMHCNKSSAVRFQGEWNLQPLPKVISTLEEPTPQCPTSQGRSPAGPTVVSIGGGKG
Test: Dopamine beta hydroxylase activity in human plasma
Type: biochemical
Conditions: for Plasma (0.01 μM), activity in % of control: inhibitor 0.01 μM; for Plasma (0.1 μM), activity in % of control: inhibitor 0.1 μM
Outline: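 Octopamine production from tyramine over 45 min at 37° C, measured photometrically at 330 nm after SCX extraction and periodate oxidation against an octopamine standard curve, indicates plasma DβH activity. Compounds tested at final 10, 100 and 1000 nM in human plasma, pH 5.0 cofactor buffer, 10 min preincubation; results as % of control.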

With `O=C(Cc1[nH]c(=S)n2c1C[C@H](c1c(F)c(F)cc(F)c1F)C2)NC[C@@H]1CCCO1` [Example 395, 2-((R)-6-(2,3,5,6-tetrafluorophenyl)-3-thioxo-2,5,6,7-tetrahydro-3H-pyrrolo[1,2-c]imidazol-1-yl)-N—(((S)-tetrahydrofuran-2-yl)methyl)acetamide] the “Plasma (0.01 μM), activity in % of control” value was 96.9 % of control and the “Plasma (0.1 μM), activity in % of control” value was 47.8 % of control.

For `CN(C(=O)Cc1[nH]c(=S)n2c1[C@@H]1C[C@]1(c1c(F)ccc(Cl)c1F)C2)C1CCOC1` (stereo partly drawn) [Example 396, 2-((5aS,6aR)-5a-(3-chloro-2,6-difluorophenyl)-3-thioxo-2,3,5,5a,6,6a-hexahydrocyclopropa[3,4]pyrrolo[1,2-c]imidazol-1-yl)-N-methyl-N-(tetrahydrofuran-3-yl)acetamide], the “Plasma (0.01 μM), activity in % of control” value was 66.9 % of control and the “Plasma (0.1 μM), activity in % of control” value was 10.8 % of control.

In the case of `Cn1c(CC(=O)NCC2CCOCC2)c2n(c1=S)C[C@@H](c1c(F)c(F)cc(F)c1F)C2` [Example 397, (R)-2-(2-methyl-6-(2,3,5,6-tetrafluorophenyl)-3-thioxo-2,5,6,7-tetrahydro-3H-pyrrolo[1,2-c]imidazol-1-yl)-N-((tetrahydro-2H-pyran-4-yl)methyl)acetamide], the “Plasma (0.01 μM), activity in % of control” value is reported as 79.9 % of control and the “Plasma (0.1 μM), activity in % of control” value is reported as 24.1 % of control.

With `CN(C(=O)Cc1c2n(c(=S)n1C)C[C@@H](c1c(F)c(F)cc(F)c1F)C2)C1COC1` [Example 398, (R)—N-methyl-2-(2-methyl-6-(2,3,5,6-tetrafluorophenyl)-3-thioxo-2,5,6,7-tetrahydro-3H-pyrrolo[1,2-c]imidazol-1-yl)-N-(oxetan-3-yl)acetamide] the “Plasma (0.01 μM), activity in % of control” value was 94.3 % of control and the “Plasma (0.1 μM), activity in % of control” value was 23.0 % of control.

`CN(C(=O)Cc1c2n(c(=S)n1C)C[C@H](c1c(F)ccc(Cl)c1F)C2)[C@@H]1CCOC1` [Example 399, 2-((S)-6-(3-chloro-2,6-difluorophenyl)-2-methyl-3-thioxo-2,5,6,7-tetrahydro-3H-pyrrolo[1,2-c]imidazol-1-yl)-N-methyl-N—((R)-tetrahydrofuran-3-yl)acetamide] was tested, and the “Plasma (0.01 μM), activity in % of control” value was 40.6 % of control and the “Plasma (0.1 μM), activity in % of control” value was 4.0 % of control.

For `Cn1c(CC(=O)NC2COC2)c2n(c1=S)C[C@@]1(c3c(F)ccc(Cl)c3F)C[C@@H]21` [Example 400, 2-((5aS,6aR)-5a-(3-chloro-2,6-difluorophenyl)-2-methyl-3-thioxo-2,3,5,5a,6,6a-hexahydrocyclopropa[3,4]pyrrolo[1,2-c]imidazol-1-yl)-N-(oxetan-3-yl)acetamide], the “Plasma (0.01 μM), activity in % of control” value was 31.9 % of control and the “Plasma (0.1 μM), activity in % of control” value was 7.3 % of control.

With `O=C(Cc1[nH]c(=S)n2c1C[C@@H](c1c(F)ccc(Cl)c1F)C2)N[C@@H]1CCCOC1` [Example 401, 2-((S)-6-(3-chloro-2,6-difluorophenyl)-3-thioxo-2,5,6,7-tetrahydro-3H-pyrrolo[1,2-c]imidazol-1-yl)-N—((R)-tetrahydro-2H-pyran-3-yl)acetamide] the “Plasma (0.01 μM), activity in % of control” value was 66.5 % of control and the “Plasma (0.1 μM), activity in % of control” value was 35.2 % of control.

`O=C(Cc1[nH]c(=S)n2c1C[C@@H](c1c(F)ccc(Br)c1F)C2)N[C@@H]1CCCOC1` [Example 402, 2-((S)-6-(3-bromo-2,6-difluorophenyl)-3-thioxo-2,5,6,7-tetrahydro-3H-pyrrolo[1,2-c]imidazol-1-yl)-N—((R)-tetrahydro-2H-pyran-3-yl)acetamide] was tested, and the “Plasma (0.01 μM), activity in % of control” value was 59.6 % of control and the “Plasma (0.1 μM), activity in % of control” value was 20.9 % of control.

`O=C(Cc1[nH]c(=S)n2c1C[C@@H](c1c(F)ccc(Cl)c1F)C2)N[C@H]1CCOC1` [Example 404, 2-((S)-6-(3-chloro-2,6-difluorophenyl)-3-thioxo-2,5,6,7-tetrahydro-3H-pyrrolo[1,2-c]imidazol-1-yl)-N—((S)-tetrahydrofuran-3-yl)acetamide] was tested, and the “Plasma (0.01 μM), activity in % of control” value was 78.7 % of control and the “Plasma (0.1 μM), activity in % of control” value was 26.2 % of control.

With `CN(C(=O)Cc1c2n(c(=S)n1C)C[C@H](c1c(F)ccc(Br)c1F)C2)C1CCOCC1` [Example 405, (S)-2-(6-(3-bromo-2,6-difluorophenyl)-2-methyl-3-thioxo-2,5,6,7-tetrahydro-3H-pyrrolo[1,2-c]imidazol-1-yl)-N-methyl-N-(tetrahydro-2H-pyran-4-yl)acetamide] the “Plasma (0.01 μM), activity in % of control” value was 50.7 % of control and the “Plasma (0.1 μM), activity in % of control” value was 4.5 % of control.

`Cn1c(CC(=O)NC2CCOCC2)c2n(c1=S)C[C@H](c1c(F)ccc(Br)c1F)C2` [Example 406, (S)-2-(6-(3-bromo-2,6-difluorophenyl)-2-methyl-3-thioxo-2,5,6,7-tetrahydro-3H-pyrrolo[1,2-c]imidazol-1-yl)-N-(tetrahydro-2H-pyran-4-yl)acetamide] was tested, and the “Plasma (0.01 μM), activity in % of control” value was 28.9 % of control and the “Plasma (0.1 μM), activity in % of control” value was 2.8 % of control.

For `O=C(O)Cc1[nH]c(=S)n2c1C[C@@H](c1c(F)ccc(Cl)c1F)C2` [Example 407, (S)-2-(6-(3-chloro-2,6-difluorophenyl)-3-thioxo-2,5,6,7-tetrahydro-3H-pyrrolo[1,2-c]imidazol-1-yl)acetic acid], the “Plasma (0.01 μM), activity in % of control” value was 102.6 % of control and the “Plasma (0.1 μM), activity in % of control” value was 42.3 % of control.

With `CN(C(=O)Cc1[nH]c(=S)n2c1C[C@@H](c1c(F)ccc(Br)c1F)C2)C1COC1` [Example 408, (S)-2-(6-(3-bromo-2,6-difluorophenyl)-3-thioxo-2,5,6,7-tetrahydro-3H-pyrrolo[1,2-c]imidazol-1-yl)-N-methyl-N-(oxetan-3-yl)acetamide] the “Plasma (0.01 μM), activity in % of control” value was 77.0 % of control and the “Plasma (0.1 μM), activity in % of control” value was 14.7 % of control.

In the case of `Cn1c(CC(=O)O)c2n(c1=S)C[C@H](c1c(F)ccc(F)c1F)C2` [Example 409, (S)-2-(2-methyl-3-thioxo-6-(2,3,6-trifluorophenyl)-2,5,6,7-tetrahydro-3H-pyrrolo[1,2-c]imidazol-1-yl)acetic Acid], the “Plasma (0.01 μM), activity in % of control” value is reported as 112.6 % of control and the “Plasma (0.1 μM), activity in % of control” value is reported as 64.4 % of control.

With `O=C(Cc1[nH]c(=S)n2c1C[C@@H](c1c(F)ccc(Br)c1F)C2)NC1CCOCC1` [Example 410, (S)-2-(6-(3-bromo-2,6-difluorophenyl)-3-thioxo-2,5,6,7-tetrahydro-3H-pyrrolo[1,2-c]imidazol-1-yl)-N-(tetrahydro-2H-pyran-4-yl)acetamide] the “Plasma (0.01 μM), activity in % of control” value was 62.3 % of control and the “Plasma (0.1 μM), activity in % of control” value was 11.1 % of control.

For `Cn1c(CC(=O)N2CCOCC2)c2n(c1=S)C[C@H](c1c(F)ccc(F)c1F)C2` [Example 411, (S)-2-(2-methyl-3-thioxo-6-(2,3,6-trifluorophenyl)-2,5,6,7-tetrahydro-3H-pyrrolo[1,2-c]imidazol-1-yl)-1-morpholinoethan-1-one], the “Plasma (0.01 μM), activity in % of control” value was 104.2 % of control and the “Plasma (0.1 μM), activity in % of control” value was 78.6 % of control.

`Cn1c(CC(=O)N[C@@H]2CCOC2)c2n(c1=S)C[C@H](c1c(F)ccc(F)c1F)C2` [Example 412, 2-((S)-2-methyl-3-thioxo-6-(2,3,6-trifluorophenyl)-2,5,6,7-tetrahydro-3H-pyrrolo[1,2-c]imidazol-1-yl)-N—((R)-tetrahydrofuran-3-yl)acetamide] was tested, and the “Plasma (0.01 μM), activity in % of control” value was 106.2 % of control and the “Plasma (0.1 μM), activity in % of control” value was 63.2 % of control.

In the case of `Cn1c(CC(=O)NC2COC2)c2n(c1=S)C[C@H](c1c(F)ccc(Br)c1F)C2` [Example 413, (S)-2-(6-(3-bromo-2,6-difluorophenyl)-2-methyl-3-thioxo-2,5,6,7-tetrahydro-3H-pyrrolo[1,2-c]imidazol-1-yl)-N-(oxetan-3-yl)acetamide], the “Plasma (0.01 μM), activity in % of control” value is reported as 42.4 % of control and the “Plasma (0.1 μM), activity in % of control” value is reported as 3.1 % of control.

For `Cn1c(CC(=O)NC2COC2)c2n(c1=S)C[C@@H](c1c(F)ccc(F)c1F)C2` [Example 414, (R)-2-(2-methyl-3-thioxo-6-(2,3,6-trifluorophenyl)-2,5,6,7-tetrahydro-3H-pyrrolo[1,2-c]imidazol-1-yl)-N-(oxetan-3-yl)acetamide], the “Plasma (0.01 μM), activity in % of control” value was 95.4 % of control and the “Plasma (0.1 μM), activity in % of control” value was 49.0 % of control.

With `Cn1c(CC(=O)N[C@@H]2CCCOC2)c2n(c1=S)C[C@@]1(c3c(F)ccc(Cl)c3F)C[C@@H]21` [Example 415, 2-((5aS,6aR)-5a-(3-chloro-2,6-difluorophenyl)-2-methyl-3-thioxo-2,3,5,5a,6,6a-hexahydrocyclopropa[3,4]pyrrolo[1,2-c]imidazol-1-yl)-N—((R)-tetrahydro-2H-pyran-3-yl)acetamide] the “Plasma (0.01 μM), activity in % of control” value was 14.9 % of control and the “Plasma (0.1 μM), activity in % of control” value was 2.1 % of control.

In the case of `Cn1c(CC(=O)NC2CCOCC2)c2n(c1=S)C[C@H](c1c(F)ccc(F)c1F)C2` [Example 416, (S)-2-(2-methyl-3-thioxo-6-(2,3,6-trifluorophenyl)-2,5,6,7-tetrahydro-3H-pyrrolo[1,2-c]imidazol-1-yl)-N-(tetrahydro-2H-pyran-4-yl)acetamide], the “Plasma (0.01 μM), activity in % of control” value is reported as 75.3 % of control and the “Plasma (0.1 μM), activity in % of control” value is reported as 25.4 % of control.

From patent US11434242B2, “Dopamine-b-hydroxylase inhibitors” (BIAL-PORTELA & Cª, S.A., priority 2017, dated 2022)
